In article PMC7413516, “Antidepressant-like activity and safety profile evaluation of 1H-imidazo[2,1-f]purine-2,4(3H,8H)-dione derivatives as 5-HT1A receptor partial agonists” (PLoS ONE, 2020):

Experiments:
[1] = molecular target: T1, muscarinic M3 receptor (M3R) (Cavia porcellus, UniProt H0W1Z3); assay: Smooth muscle relaxant assay: carbachol-induced contraction of isolated guinea pig ileum; settings: isolated guinea pig small intestine, carbachol 100 μM
T1 construct: from tissue; host or cells: isolated guinea pig ileum
T1 sequence (H0W1Z3 1-590): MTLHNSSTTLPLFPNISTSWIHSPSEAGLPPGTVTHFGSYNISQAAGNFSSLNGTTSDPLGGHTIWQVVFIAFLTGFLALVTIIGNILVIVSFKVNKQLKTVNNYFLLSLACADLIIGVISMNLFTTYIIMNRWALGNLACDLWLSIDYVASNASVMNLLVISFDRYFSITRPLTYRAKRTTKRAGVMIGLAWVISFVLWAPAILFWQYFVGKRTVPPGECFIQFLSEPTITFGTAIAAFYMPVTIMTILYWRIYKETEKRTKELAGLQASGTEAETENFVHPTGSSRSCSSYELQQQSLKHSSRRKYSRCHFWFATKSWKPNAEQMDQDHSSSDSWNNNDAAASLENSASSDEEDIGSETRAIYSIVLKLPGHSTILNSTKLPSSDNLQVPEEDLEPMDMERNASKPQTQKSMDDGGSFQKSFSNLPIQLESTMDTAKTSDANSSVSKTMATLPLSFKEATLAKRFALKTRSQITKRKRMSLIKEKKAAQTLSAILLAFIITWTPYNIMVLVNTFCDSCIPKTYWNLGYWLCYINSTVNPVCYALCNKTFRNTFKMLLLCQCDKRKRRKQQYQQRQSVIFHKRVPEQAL
Procedure: The experiment was carried out according to the method described previously. Male guinea pigs were sacrificed by cervical dislocation. The ileum was rapidly removed, rinsed, and cut into segments of 1.5–2.0 cm length. The tissues were mounted on a jacketed 20 mL organ bath (Tissue Organ Bath System; 750 TOBS, DMT, Denmark) filled with Krebs’s solution (NaCl 120 mM, KCl 5.6 mM, MgCl2 2.2 mM, CaCl2 2.4 mM, NaHCO3 19 mM, glucose 10 mM). The bath was aerated with 95 % O2/5 % CO2 and heated at 37°C. During the 60-min incubation period, the organ was rinsed 4 times with fresh Krebs’s buffer, and the tissues were also pre-stimulated by 60 mM KCl solution. The submaximal contraction induced by histamine (Sigma Aldrich) (2 μM) and carbachol (Sigma Aldrich) (100 μM) was evaluated in the presence and absence of the tested compounds. Amplitudes of contraction values were measured in 4 independent experiments.

[2] = Plasma glucose, triglyceride and cholesterol levels after repeated administration; assay type: in vivo, Swiss albino mice; settings: mice, AZ-853 0.625, AZ-861 1.25 mg/kg b.w./day
Procedure: (§1) The Swiss albino mice were used in the experiment. AZ-853 and AZ-861 were injected once daily for 16 consecutive days. On the 1st and 15th day the administration of the compounds, 18-h spontaneous animal activity was registered (see below). FST, as described earlier, was performed on the 14th day just before the next treatment. To ensure that the effects observed in FST are not the result of increased motility of animals, on the 13th day, just before the next administration, the locomotor activity was measured as described earlier, from 2 to 6 min after test start, i.e. in the period identical to the duration of FST. Blood and organ collection was performed on the 17th day at 24 h after the last dose and fasting.
Blood samples were collected from the Swiss albino mice 24 h after the last administration of the tested compounds or vehicle. To determine glucose, cholesterol and triglyceride levels in the plasma, standard enzymatic spectrophotometric tests (Biomaxima S.A. Lublin, Poland) were used. In the presence of appropriate enzyme, the substrate was converted to a colored compound. Absorbance was measured at a wavelength of 500 nm. To determine alanine aminotransferase (ALAT) or γ-glutamyl transpeptidase (γ-GTP) activities in the plasma, the standard enzymatic spectrophotometric test (Biomaxima S.A.) was used. Absorbance was measured at 340 nm (ALAT) or 405 nm (γ-GTP).

[3] = molecular target: T2, human serotonin 5-HT1A receptor (Homo sapiens, UniProt P08908); assay: ERK1/2 phosphorylation (SureFire Alpha LISA, CHO-K1 5HT1AR cells)
T2 sequence (P08908 1-422): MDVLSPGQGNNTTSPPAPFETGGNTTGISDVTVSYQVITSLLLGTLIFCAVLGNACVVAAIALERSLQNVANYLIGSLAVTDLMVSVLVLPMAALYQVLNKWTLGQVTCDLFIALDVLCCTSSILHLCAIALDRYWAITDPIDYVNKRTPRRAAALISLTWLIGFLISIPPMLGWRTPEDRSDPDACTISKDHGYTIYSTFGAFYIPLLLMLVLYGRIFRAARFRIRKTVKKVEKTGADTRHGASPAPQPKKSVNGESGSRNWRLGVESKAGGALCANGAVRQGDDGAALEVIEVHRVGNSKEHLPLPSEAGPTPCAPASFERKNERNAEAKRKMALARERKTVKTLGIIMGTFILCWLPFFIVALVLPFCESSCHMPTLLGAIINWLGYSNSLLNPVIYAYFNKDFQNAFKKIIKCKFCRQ
Procedure: CHO-K1 cell line transfected with 5-HT1A receptor, were commercially obtained from Perkin Elmer (Cat. No. ES-310-C, Lot Number M2W-C1). Cells were cultured according to manufacturer’s instruction. […] Geneticin-resistant clones were obtained by limit dilution and compared for receptor expression levels using a radioligand binding assay. The clone with the highest receptor expression level was selected for characterization in binding and functional assays. […] Corresponding Protein Sequence: Identical to GenBank NP_000515.2. Receptor expression level (BMAX): Estimated to be 3.7 ± 2.3 pmol/mg protein, using [3H] […] This cell line tested negative for mycoplasma.

[4] = molecular target: serotonergic 5-HT7 receptor (5-HT7R); parameters: method as in PMID 27353547; settings: ref [8]; cited from earlier work
mice = assay: Spontaneous activity monitoring (RFID TraffiCage, 18 h); assay type: in vivo, Swiss albino mice; settings: for Mean counts, spontaneous activity: 1.25 mg/kg
Procedure: as §1
The spontaneous activity of the mice was measured on the 1st and 15th day of the treatment with a special, innovative radiofrequency identification system (RFID-system)—TraffiCage (TSE-Systems, Germany). The test was conducted according to the method described in the literature. The animals had the transmitter (RFID) subcutaneously implanted, which tracked the time they spent in different areas of the cage. The data obtained were then grouped in a special computer program.

[5] = parameters: method as in PMID 27353547; settings: ref [8]; cited from earlier work
PDE10A = tested on: PDE10A; parameters: method as in PMID 27353547; settings: in vitro, bioluminescent detection system; ref [8]; cited from earlier work
human 5-HT1AR = molecular target: T3, human 5-HT1AR (Homo sapiens, UniProt P08908); assay: β-Arrestin recruitment (Tango LiveBLAzer, HTR1A-bla U2OS cells)
T3 sequence (P08908 1-422): T2 sequence (P08908 1-422)
Procedure: Cells were cultured according to manufacturer’s instruction. […] This parental cell line stably expresses a beta-arrestin/TEV protease fusion protein and the beta-lactamase reporter gene under the control of a UAS response element. The Tango™ HTR1A-bla U2OS cells have been functionally validated for a response to 5-CT. This cell line tested negative for mycoplasma.
The HTR1A-bla U2OS receptor cells containing the human 5-HT1AR linked to a TEV protease site and a Gal4-VP16 transcription factor were tested for recruitment of β-arrestin. […] The recruitment of β-arrestin were tested using the Tango LiveBLAzer assay kit according to the manufacturer’s instruction (Life Technologies). The assay plate was measured in FLUOstar Optima, a multifunction plate reader (BMG Lab Tech).

human serotonin 5-HT1AR = molecular target: T4, human serotonin 5-HT1AR (Homo sapiens, UniProt P08908); assay: cAMP inhibition (LANCE Ultra cAMP, forskolin-stimulated CHO-K1 cells)
T4 sequence (P08908 1-422): T2 sequence (P08908 1-422)
Procedure: CHO-K1 cell line transfected with 5-HT1A receptor, were commercially obtained from Perkin Elmer (Cat. No. ES-310-C, Lot Number M2W-C1). Cells were cultured according to manufacturer’s instruction.
The cells were cultured under selective conditions (400 μg/mL Geneticin G418). Thawed cells were resuspended in stimulation buffer (HBSS, 5 mM HEPES, 0.5 IBMX, and 0.1% BSA at pH 7.4) at 2 × 10^5 cells/mL. The same volume (10 μL) of cell suspension was added to tested compounds with 10 μM forskolin. Cell stimulation was performed for 40 min at room temperature. After incubation, cAMP measurements were performed with homogeneous TR-FRET immunoassay using the LANCE Ultra cAMP kit (PerkinElmer, USA) according to the manufacturer’s instruction (PerkinElmer). The TR-FRET signal was read on an EnVision microplate reader (PerkinElmer, USA).

[6] = CHO-K1, read-out: Emax (%) ± SEM, agonist mode
[7] = 18-h monitoring, AZ-853 0.625, AZ-861 1.25 mg/kg b.w./day

inhibition at 1 µM [1]: 0.17% | plasma level of total cholesterol vs. control [2]: increased significantly | plasma level of triglycerides vs. control [2]: increased significantly | EC50 [3]: 1.15 nM | Emax [3, 6]: 76 ± 1.3% | decreased efficacy as compared to 5-HT ([3]; p-ERK1/2): 1.3 fold | increased potency as compared to 5-HT ([3]; p-ERK1/2): 9.1 fold | spontaneous activity after the 1st administration vs. control (mice; [7]): No effect on locomotor activity | Mean counts, spontaneous activity (mice; after 1st administration, 1 h after administration): 223.1 counts | Mean counts, spontaneous activity (mice; after 1st administration, 2 h after administration): 212.3 counts | Mean counts, spontaneous activity (mice; after 1st administration, 3 h after administration): 190.0 counts | Mean counts, spontaneous activity (mice; after 1st administration, 4 h after administration): 112.6 counts | Mean counts, spontaneous activity (mice; after 1st administration, 5 h after administration): 125.9 counts | Mean counts, spontaneous activity (mice; after 1st administration, 6 h after administration): 188.8 counts | Mean counts, spontaneous activity (mice; after 1st administration, 7 h after administration): 229.5 counts | Mean counts, spontaneous activity (mice; after 1st administration, 8 h after administration): 268.3 counts | Mean counts, spontaneous activity (mice; after 1st administration, 9 h after administration): 274.6 counts | Mean counts, spontaneous activity (mice; after 1st administration, 10 h after administration): 298.0 counts | Mean counts, spontaneous activity (mice; after 1st administration, 11 h after administration): 311.6 counts | Mean counts, spontaneous activity (mice; after 1st administration, 12 h after administration): 274.9 counts | Mean counts, spontaneous activity (mice; after 1st administration, 13 h after administration): 290.8 counts | Mean counts, spontaneous activity (mice; after 1st administration, 14 h after administration): 267.1 counts | Mean counts, spontaneous activity (mice; after 1st administration, 15 h after administration): 232.3 counts | Mean counts, spontaneous activity (mice; after 1st administration, 16 h after administration): 255.3 counts | Mean counts, spontaneous activity (mice; after 1st administration, 17 h after administration): 318.8 counts | Mean counts, spontaneous activity (mice; after 1st administration, 18 h after administration): 275.9 counts | Mean counts, spontaneous activity (mice; after 15th administration, 1 h after administration): 228.5 counts | Mean counts, spontaneous activity (mice; after 15th administration, 2 h after administration): 121.0 counts | Mean counts, spontaneous activity (mice; after 15th administration, 3 h after administration): 91.6 counts | Mean counts, spontaneous activity (mice; after 15th administration, 4 h after administration): 149.1 counts | Mean counts, spontaneous activity (mice; after 15th administration, 5 h after administration): 154.4 counts | Mean counts, spontaneous activity (mice; after 15th administration, 6 h after administration): 159.0 counts | Mean counts, spontaneous activity (mice; after 15th administration, 7 h after administration): 185.0 counts | Mean counts, spontaneous activity (mice; after 15th administration, 8 h after administration): 140.4 counts | Mean counts, spontaneous activity (mice; after 15th administration, 9 h after administration): 144.0 counts | Mean counts, spontaneous activity (mice; after 15th administration, 10 h after administration): 195.7 counts | Mean counts, spontaneous activity (mice; after 15th administration, 11 h after administration): 177.3 counts | Mean counts, spontaneous activity (mice; after 15th administration, 12 h after administration): 236.1 counts | Mean counts, spontaneous activity (mice; after 15th administration, 13 h after administration): 169.1 counts | Mean counts, spontaneous activity (mice; after 15th administration, 14 h after administration): 242.3 counts | Mean counts, spontaneous activity (mice; after 15th administration, 15 h after administration): 172.6 counts | Mean counts, spontaneous activity (mice; after 15th administration, 16 h after administration): 218.9 counts | Mean counts, spontaneous activity (mice; after 15th administration, 17 h after administration): 210.1 counts | Mean counts, spontaneous activity (mice; after 15th administration, 18 h after administration): 244.6 counts | EC50 (human 5-HT1AR): 0.372 nM | Emax (human 5-HT1AR; U2OS, read-out: Emax (%) ± SEM, agonist mode): 95 ± 1.7% | increased potency as compared to 5-HT (human 5-HT1AR; β-arrestin recruitment): 1000 fold | EC50 (human serotonin 5-HT1AR): 4.37 nM | Emax (human serotonin 5-HT1AR; [6]): 76 ± 1.7% | higher potency than 5-HT (human serotonin 5-HT1AR; cAMP inhibition): 2.6 fold | lower efficacy than 5-HT (human serotonin 5-HT1AR; cAMP inhibition): 1.3 fold
SMILES: Cn1c(=O)c2c(nc3n(CCCCN4CCN(c5cccc(C(F)(F)F)c5)CC4)ccn23)n(C)c1=O [AZ-861, 1,3-dimethyl-8-(4-(4-(3-(trifluoromethyl)phenyl)piperazin-1-yl)butyl)-1H-imidazo[2,1-f]purine-2,4(3H,8H)-dione]
plasma glucose level vs. control [2]: did not influence the plasma glucose level | Ki [4]: 136 nM | spontaneous activity after the 15th administration vs. control (mice; [7]): significant decrease in spontaneous activity | estimated log p [5]: 5.75 | PDE10A inhibitory activity (PDE10A): did not induce PDE4B and PDE10A inhibitory activity
